{"source": "patent US20050287232A1", "about": "“Skin immune function controlling agents” (priority 1999, published 2005)", "key": {"[1]": {"system": "contact hypersensitivity reaction", "assay": "Contact hypersensitivity (CH) reaction induced and provoked with TNCB; perfume inhalation or topical application", "type": "in vivo, mice", "description": "Female C57 BL/6 mice (aged 7-9 weeks) were used. Each group of five animals were placed in a cage (225×335×140 mm) and kept in a chamber maintained at a temperature of 21-25° C. and a relative humidity of 40-70%. The inhalation of a perfume into the animals was carried out by placing a Petri dish having a diameter of 10 cm in the cage, putting therein a filter paper impregnated with the perfume, and covering the dish with wire netting. (A filter paper impregnated with no perfume was used for a control group.) This animal experiment followed the National Research Council Guidelines. […] After 5 days (on experimental day 6), a contact hypersensitivity reaction was provoked by applying 5 μl of a 1% acetone solution of the aforesaid antigen to both sides of the right ear of each animal. The contact hypersensitivity (hereinafter referred to as CH) reaction was evaluated by measuring the thickness of the swollen left and right ears on day 7 with a micrometer and calculating the difference between the measured values. In order to examine the effect of perfume inhalation at the time of sensitization, a Petri dish containing a filter paper impregnated with the aforesaid perfume was placed in the cage over a period of time extending from day 0 to day 2. In order to examine the effect of perfume inhalation at the time of immunity provocation, the aforesaid Petri dish was placed in the cage over a period of time extending from day 5 to day 7. In order to examine the effect of the direct application of a perfume to the skin, 50 μl of 0.1% […] or diluent (50% corn oil in acetone) was applied to a region to be sensitized, and the aforesaid antigen was applied thereto after 6 hours. The long-term effect was tested by applying 50 μl of 1% perfume or diluent every day over a period of time extending from day 0 to day 2."}, "[2]": {"system": "Epidermal Langerhans' cells", "assay": "Staining of epidermal Langerhans' cells (I-A antigen) after perfume exposure", "type": "in vivo, mouse", "description": "Female C57 BL/6 mice (aged 7-9 weeks) were used. Each group of five animals were placed in a cage (225×335×140 mm) and kept in a chamber maintained at a temperature of 21-25° C. and a relative humidity of 40-70%. The inhalation of a perfume into the animals was carried out by placing a Petri dish having a diameter of 10 cm in the cage, putting therein a filter paper impregnated with the perfume, and covering the dish with wire netting. (A filter paper impregnated with no perfume was used for a control group.) This animal experiment followed the National Research Council Guidelines. Epidermal Langerhans' cells were stained according to the well-known method. In brief, an ear of a mouse was incubated in a 3.8% aqueous solution of ammonium thioisocyanate at 37° C. for 20 minutes to separate the epidermis from the corium. The epidermal sheet was fixed with acetone and incubated in the culture supernatant of mouse hybridoma M5/114.15.2 (American Tissue Type Collection, Rockville, Md., USA) so as to cause the secretion of anti-I-A IgG. Then, the anti-I-A IgG was combined with fluorescein isothiocyanate (FITC) (Sigma, USA)-labeled anti-mouse IgG antibody. Cells positive for the I-A antigen were observed under a confocal laser scanning microscope (MRC600; Bio Rad, USA) and analyzed. Samples were collected from each group of five mice. Three regions of each sample were analyzed by a blind test."}, "adenylate cyclase [3]": {"system": "adenylate cyclase", "settings": "olfactory cells of frogs; Sklar et al. 1986; cited from earlier work"}, "adenylate cyclase [4]": {"system": "adenylate cyclase", "settings": "olfactory cells of rats; Boekhoff et al. 1990; cited from earlier work"}, "[5]": {"system": "contact hypersensitivity reaction", "assay": "CH reaction under restraint stress with perfume inhalation", "type": "in vivo, mice", "settings": "for Swelling: DMMB inhalation, individual animals, right ear minus left ear thickness; for Average (swelling): DMMB, average of 5 values of Table III (1), given there in × 0.01 mm", "description": "Female C57 BL/6 mice (aged 7-9 weeks) (purchased from Charles River Japan) were used. Each group of five animals were placed in a cage (225×335×140 mm) and kept in a chamber maintained at a temperature of 21-25° C. and a relative humidity of 40-70%. The inhalation of a perfume into the animals was carried out by placing a Petri dish having a diameter of 10 cm in the cage, putting therein a filter paper impregnated with the perfume, and covering the dish with wire netting. (A filter paper impregnated with no perfume was used for a control group.) These animals were laid in a prone position and wrapped in a pliable fine-meshed wire net for 6 hours. This animal experiment gained the approval of the animal experimentation committee of our company following the National Research Council Guidelines.\nMice were sensitized by applying 2,4,6-trinitrochlorobenzene (TNCB) (10 μl of a 3% acetone solution) to the inner and outer surfaces of the left ear of each mouse. After 5 days, a CH reaction was provoked by applying TNCB (5 μl of a 1% acetone solution) to the inner and outer surfaces of the right ear of each mouse. After 24 hours, the swelling was evaluated by measuring the thicknesses of both ears with a micrometer (manufactured by Mitsutoyo) and subtracting the thickness of the left ear from that of the right ear. The exposure of the animals to a perfume was continued over a period of time extending from 24 hours before provocation to the measurement of the swelling. The restraint stress was imposed 24 hours before provocation and repeated immediately after provocation. This experiment was carried out by using the animals in groups of five and using 1,3-dimethoxy-5-methylbenzene (DMMB; purchased from Takasago International Inc.) as the perfume.\nThe values given in Table III, (1) are values obtained by subtracting the measured thickness of the left ear of each test animal from that of the right ear thereof."}, "[6]": {"system": "Langerhans' cells in the epidermis", "assay": "Staining of Langerhans' cells after stress imposition with perfume inhalation", "type": "in vivo, mice", "settings": "DMMB at the time of stress imposition, FIG. 5", "description": "Epidermal Langerhans' cells were stained according to the well-known method. In brief, an ear of a mouse was incubated in a 3.8% aqueous solution of ammonium thioisocyanate at 37° C. for 20 minutes to separate the epidermis from the corium. The epidermal sheet was fixed with acetone and incubated in the culture supernatant of mouse hybridoma M5/114.15.2 (American Tissue Type Collection, Rockville, Md., USA) so as to cause the secretion of anti-I-A IgG. Then, the anti-I-A IgG was combined with fluorescein isothiocyanate (FITC) (Sigma, USA)-labeled anti-mouse IgG antibody. Cells positive for the I-A antigen were observed under a confocal laser scanning microscope (MRC600; Bio Rad, USA) and analyzed. Samples were collected from each group of five mice. Three regions of each sample were analyzed by a blind test.\nFemale C57 BL/6 mice (aged 7-9 weeks) (purchased from Charles River Japan) were used. Each group of five animals were placed in a cage (225×335×140 mm) and kept in a chamber maintained at a temperature of 21-25° C. and a relative humidity of 40-70%. The inhalation of a perfume into the animals was carried out by placing a Petri dish having a diameter of 10 cm in the cage, putting therein a filter paper impregnated with the perfume, and covering the dish with wire netting. […]"}, "[7]": {"settings": "Table I, after exposure to citralva, SD in parentheses"}, "[8]": {"settings": "Table II, animals kept in the presence of citralva or lyral/lilial, SD in parentheses"}}, "note": "Where “and” joins values, the source holds several entries; their conditions need not be identical. Equal entries are not always repeated. Where two headings read alike, the source gives them in different places."}
{"smiles": "CC(C)=CCCC(C)=CC#N", "note": "[citralva, 3,7-dimethyl-2,6-octadienenitrile]", "values": [{"measurement": "influence of topical application on the CH reaction", "setting": "[1]; direct application to the skin, 50 μl of 0.1% or 1% perfume, FIG. 3", "value": "neither citralva nor lyral/lilial exerts an influence on the CH reaction"}, {"measurement": "suppression of the induction of the CH reaction", "setting": "[1]; inhalation, exposure for 2 days at the time of induction (day 0 to day 2), FIG. 1 B", "value": "about 20%"}, {"measurement": "suppression of the provocation of the CH reaction", "setting": "[1]; inhalation, exposure for 2 days at the time of provocation (day 5 to day 7), compared with controls, FIG. 1 A", "value": "about 50%"}, {"measurement": "effect on CH reaction, citralva compared with lyral/lilial", "setting": "[1]; perfume inhalation, FIG. 2", "value": "significantly more powerful than that of lyral/lilial"}, {"measurement": "effect on the provocation of a CH reaction", "setting": "[1]; perfume inhalation, FIG. 2", "value": "suppress the CH reaction"}, {"measurement": "Area per cell", "setting": "[2]; [7]", "value": "172.0 (78.3) μm^2"}, {"measurement": "Intensity of I-A", "setting": "[2]; [7]", "value": "89.9 (2.9)"}, {"measurement": "Number of LC", "setting": "[2]; [7]", "value": "119.8 (15.0) per mm^2"}, {"measurement": "Number of dendrites", "setting": "[2]; [7]", "value": "4.40 (0.92)"}, {"measurement": "effect on Langerhans' cells, comparison of perfumes", "setting": "[2]; Table II", "value": "more powerful effect than lyral/lilial"}, {"measurement": "Intensity of I-A", "setting": "[2]; [8]", "value": "84.9 (3.1)"}, {"measurement": "Number of dendrites", "setting": "[2]; [8]", "value": "2.56 (0.12)"}, {"measurement": "change in number of LC", "setting": "[2]; after exposure to citralva, versus control (Table I)", "value": "significantly decreased"}, {"measurement": "change in area of each I-A-positive cell", "setting": "[2]; exposure to citralva, versus control", "value": "significantly reduced"}, {"measurement": "adenylate cyclase activation", "setting": "adenylate cyclase [3]", "value": "activates adenylate cyclase"}, {"measurement": "adenylate cyclase activation", "setting": "adenylate cyclase [4]", "value": "activates adenylate cyclase"}]}
{"smiles": "COc1cc(C)cc(OC)c1", "note": "[DMMB, 1,3-dimethoxy-5-methylbenzene]", "values": [{"measurement": "Swelling", "setting": "[5]; Restrained", "value": "17 × 0.01 mm (2×) and 18 × 0.01 mm and 15 × 0.01 mm and 14 × 0.01 mm"}, {"measurement": "Average (swelling)", "setting": "[5]; Restrained", "value": 16.2}, {"measurement": "Swelling", "setting": "[5]; Unrestrained", "value": "17 × 0.01 mm (2×) and 16 × 0.01 mm (2×) and 13 × 0.01 mm"}, {"measurement": "Average (swelling)", "setting": "[5]; Unrestrained", "value": 15.38}, {"measurement": "suppression of the skin immune reaction by stress", "setting": "[5]; animal group having undergone DMMB inhalation, Table III, FIG. 4", "value": "not observed"}, {"measurement": "number of Langerhans' cells", "setting": "[6]; compared with group without stress imposition", "value": "of the same order"}, {"measurement": "number of Langerhans' cells", "setting": "[6]; compared with stress imposition alone", "value": "significantly increased"}]}
